Values quoted from earlier work in patent US20030171260A1, “Compositions and methods utilizing hydroxamates to scavenge oxidant toxins” (priority 2002, published 2003).
Counter-ions that a name gives are not always drawn.

Key:
[1] = system: rat

time to leave the vascular space after administration | Structure (SMILES) | oral LD50 dose ([1]; in vivo, po) | intraperitoneal LD50 dose ([1]; intraperitoneal) | subcutaneous LD50 dose ([1]; subcutaneous)
– | CCCCOc1ccc(CC(=O)NO)cc1 [bufexamac] | 3,370 mg/kg | 805 mg/kg | > 5,000 mg/kg
≤ 60 min | CC(=O)N(O)CCCCCNC(=O)CCC(=O)N(O)CCCCCNC(=O)CCC(=O)N(O)CCCCCN [desferoxamine mesylate] | – | – | –
